A short description of the test: Analgesic effect (% MPE) by tail flick method after intravenous injection. The test is classed as in vivo. Conditions: mice. (Thermal pain tests record how soon the animal reacts.)

For buprenorphine hydrochloride, the “% MPE” value is, setting by setting: (0.08 hours after i.v. 2.4 mg/kg) 0%; (0.25 hours after i.v. 2.4 mg/kg) 53.7%; (0.5 hours after i.v. 2.4 mg/kg) 96.3%; (1 hour after i.v. 2.4 mg/kg) 100%; (2 hours after i.v. 2.4 mg/kg) 77.4%; (3 hours after i.v. 2.4 mg/kg) 93.3%. Besides, the “% MPE” value by setting is: (5 hours after i.v. 2.4 mg/kg) 100%; (7 hours after i.v. 2.4 mg/kg) 72.7%; (9 hours after i.v. 2.4 mg/kg, hydrochloride, 2.4 mg/kg) 54%; (9 hours after i.v. 2.4 mg/kg, listed as buprenorphine, hydrochloride, 2.4 mg/kg) 54.4%; (12 hours after i.v. 2.4 mg/kg, hydrochloride, 2.4 mg/kg) 0%; (12 hours after i.v. 2.4 mg/kg, listed as buprenorphine, hydrochloride, 2.4 mg/kg) 8.1%. Besides, the “% MPE” value runs as follows: (18 hours after i.v. 2.4 mg/kg) 0%; (24 hours after i.v. 2.4 mg/kg) 0%. Besides, the “onset of analgesic effect” value (after i.v. 2.4 mg/kg) was 15 min. For the same substance, the “duration of analgesic effect” value (after i.v. bolus 2.4 mg/kg) came to 9 h. Moreover, the analgesic effect observed entry (between 12 and 24 hours after i.v. 2.4 mg/kg) is “No analgesic effect”.

The record behind these values is patent US20090239891A1 (priority 2006, published 2009).
